Test results taken from patent publication US11185074B2, “Microbiocidal quinoline (thio)carboxamide derivatives” (SYNGENTA PARTICIPATIONS AG, priority 2017, dated 2021).

Tests used:
[1] = tested on: Botryotinia fuckeliana (Botrytis cinerea); test: Botryotinia fuckeliana (Botrytis cinerea) / liquid culture (gray mould); assay type: cell-based; settings: 72 h, 20 ppm, liquid culture, inhibition of growth photometrically 3-4 days after application, compared to untreated control, read-out: control of Botryotinia fuckeliana
[2] = tested on: Glomerella lagenarium (Colletotrichum lagenarium); test: Glomerella lagenarium (Colletotrichum lagenarium) / liquid culture (anthracnose); assay type: cell-based; settings: Colletotrichum orbiculare; 20 ppm; liquid culture, inhibition of growth photometrically 3-4 days after application; compared to untreated control; read-out: control of Glomerella lagenarium
Fusarium culmorum [3] = test: microbe, parasite or virus in culture; assay type: cell-based; settings: read-out: control of Fusarium culmorum
Fusarium culmorum [4] = test: whole plant or invertebrate; assay type: in vivo, Fusarium culmorum on wheat spikelets cv. Monsun; settings: in Triticum aestivum, read-out: control of Fusarium culmorum
[5] = tested on: Monographella nivalis (Microdochium nivale); test: Monographella nivalis (Microdochium nivale) / liquid culture (foot rot cereals); assay type: cell-based; settings: 96 h, inhibition of growth photometrically 4-5 days after application, compared to untreated control
[6] = tested on: Magnaporthe grisea (Pyricularia oryzae); test: microbe, parasite or virus in culture; assay type: cell-based; settings: 72 h, read-out: control of Magnaporthe grisea
Sclerotinia sclerotiorum = Sclerotinia sclerotiorum / liquid culture (cottony rot); settings: 72 h, read-out: control of Sclerotinia sclerotiorum
Method: Sclerotinia sclerotiorum/Liquid Culture (Cottony Rot)
Mycelia fragments of a newly grown liquid culture of the fungus are directly mixed into nutrient broth (Vogels broth). After placing a (DMSO) solution of test compound into a microtiter plate (96-well format) the nutrient broth containing the fungal material is added. The test plates are incubated at 24° C. and the inhibition of growth is determined photometrically 3-4 days after application.

CC(CC1CC1)(CC1CC1)NC(=O)c1cnc2c(F)cccc2c1 [E-17]
inhibition of growth at 20 ppm [1]: ≥ 80% | inhibition of growth at 20 ppm [2]: ≥ 80% | inhibition of growth at 20 ppm (Fusarium culmorum [3]): ≥ 80% | pest or weed control at 200 ppm (Fusarium culmorum [4]): ≥ 80% | inhibition of growth at 20 ppm [5]: ≥ 80% | inhibition of growth at 20 ppm [6]: ≥ 80% | melting point: 96 to 98 °C

CC(C)(NC(=O)c1cnc2c(F)cccc2c1)C1CCCCC1 [E-7]
inhibition of growth at 20 ppm [1]: ≥ 80% | inhibition of growth at 20 ppm [2]: ≥ 80% | inhibition of growth at 20 ppm (Fusarium culmorum [3]): ≥ 80% | inhibition of growth at 20 ppm [5]: ≥ 80%

CC(C)=C(C)CC(C)(CC(C)C)NC(=O)c1cnc2c(F)cccc2c1 (stereo not drawn) [E-15]
inhibition of growth at 20 ppm [1]: ≥ 80% | inhibition of growth at 20 ppm [2]: ≥ 80% | inhibition of growth at 20 ppm (Fusarium culmorum [3]): ≥ 80% | inhibition of growth at 20 ppm [5]: ≥ 80% | inhibition of growth at 20 ppm [6]: ≥ 80%

CC(C)=C(F)CC(C)(CC(C)C)NC(=O)c1cnc2ccccc2c1 (stereo not drawn) [E-19]
inhibition of growth at 20 ppm [1]: ≥ 80% | inhibition of growth at 20 ppm [2]: ≥ 80% | inhibition of growth at 20 ppm (Fusarium culmorum [3]): ≥ 80% | pest or weed control at 200 ppm (Fusarium culmorum [4]): ≥ 80% | inhibition of growth at 20 ppm [6]: ≥ 80% | melting point: 95 to 97 °C

Cc1cccc2cc(C(=O)NC(C)(CC3CC=CCC3)CC(F)(F)F)cnc12 (stereo not drawn) [E-53]
inhibition of growth at 20 ppm [1]: ≥ 80% | inhibition of growth at 20 ppm [2]: ≥ 80% | inhibition of growth at 20 ppm (Fusarium culmorum [3]): ≥ 80% | inhibition of growth at 20 ppm [5]: ≥ 80% | inhibition of growth at 20 ppm [6]: ≥ 80% | melting point: 112 to 114 °C | inhibition of growth at 20 ppm (Sclerotinia sclerotiorum): ≥ 80%

CC1(CC(C)(CC(F)(F)F)NC(=O)c2cnc3c(F)cccc3c2)CC1 (stereo not drawn) [E-10, 8-fluoro-N-[3,3,3-trifluoro-1-methyl-1-[(1-methylcyclopropyl)methyl]propyl]quinoline-3-carboxamide]
inhibition of growth at 20 ppm [1]: ≥ 80% | inhibition of growth at 20 ppm [2]: ≥ 80% | inhibition of growth at 20 ppm (Fusarium culmorum [3]): ≥ 80% | inhibition of growth at 20 ppm [5]: ≥ 80% | inhibition of growth at 20 ppm [6]: ≥ 80% | melting point: 126 to 128 °C

CC(C)CC=CCC(C)(C)NC(=O)c1cnc2c(F)c(F)ccc2c1 [E-33]
inhibition of growth at 20 ppm [1]: ≥ 80% | inhibition of growth at 20 ppm [2]: ≥ 80% | inhibition of growth at 20 ppm (Fusarium culmorum [3]): ≥ 80% | inhibition of growth at 20 ppm [5]: ≥ 80%

O=C(NC(CC1CC1)CC1CC1)c1cnc2ccccc2c1 [E-29]
inhibition of growth at 20 ppm [1]: ≥ 80% | inhibition of growth at 20 ppm [2]: ≥ 80% | inhibition of growth at 20 ppm (Fusarium culmorum [3]): ≥ 80% | melting point: 123 to 125 °C

CCC(CC)CC(C)NC(=O)c1cnc2ccccc2c1 (stereo not drawn) [E-38]
inhibition of growth at 20 ppm [1]: ≥ 80% | inhibition of growth at 20 ppm [2]: ≥ 80% | inhibition of growth at 20 ppm (Fusarium culmorum [3]): ≥ 80% | inhibition of growth at 20 ppm [5]: ≥ 80%

C=CCC(C)(C)NC(=O)c1cnc2c(F)c(F)ccc2c1 [E-36]
inhibition of growth at 20 ppm [1]: ≥ 80% | inhibition of growth at 20 ppm [2]: ≥ 80% | inhibition of growth at 20 ppm (Fusarium culmorum [3]): ≥ 80% | melting point: 116 to 119 °C

Cc1cccc2cc(C(=O)NC(C)CC3CC=CCC3)cnc12 (stereo not drawn) [E-50]
inhibition of growth at 20 ppm [1]: ≥ 80% | inhibition of growth at 20 ppm [2]: ≥ 80% | inhibition of growth at 20 ppm (Fusarium culmorum [3]): ≥ 80% | pest or weed control at 200 ppm (Fusarium culmorum [4]): ≥ 80% | inhibition of growth at 20 ppm [5]: ≥ 80%

CCC(CC)CC(C)NC(=O)c1cnc2c(F)cccc2c1 (stereo not drawn) [E-40]
inhibition of growth at 20 ppm [1]: ≥ 80% | inhibition of growth at 20 ppm [2]: ≥ 80% | inhibition of growth at 20 ppm (Fusarium culmorum [3]): ≥ 80% | inhibition of growth at 20 ppm [5]: ≥ 80%

COc1ccc(CCC(C)(C#N)NC(=O)c2cnc3c(F)cccc3c2)cc1 (stereo not drawn) [E-30]
inhibition of growth at 20 ppm [2]: ≥ 80% | inhibition of growth at 20 ppm (Fusarium culmorum [3]): ≥ 80% | melting point: 175 to 176 °C

CCCC(C)CC(C)NC(=O)c1cnc2ccccc2c1 (stereo not drawn) [E-41]
inhibition of growth at 20 ppm [1]: ≥ 80% | inhibition of growth at 20 ppm [2]: ≥ 80% | inhibition of growth at 20 ppm (Fusarium culmorum [3]): ≥ 80%

CC(Cc1ccccc1)C(C)(C)NC(=O)c1cnc2c(F)cccc2c1 (stereo not drawn) [E-16]
inhibition of growth at 20 ppm [1]: ≥ 80% | inhibition of growth at 20 ppm [2]: ≥ 80% | inhibition of growth at 20 ppm (Fusarium culmorum [3]): ≥ 80% | pest or weed control at 200 ppm (Fusarium culmorum [4]): ≥ 80% | inhibition of growth at 20 ppm [5]: ≥ 80%

C=C(C)CC(C)(CC(C)C)NC(=O)c1cnc2ccccc2c1 (stereo not drawn) [E-12]
inhibition of growth at 20 ppm [1]: ≥ 80% | inhibition of growth at 20 ppm [2]: ≥ 80% | inhibition of growth at 20 ppm (Fusarium culmorum [3]): ≥ 80% | pest or weed control at 200 ppm (Fusarium culmorum [4]): ≥ 80% | inhibition of growth at 20 ppm [5]: ≥ 80% | inhibition of growth at 20 ppm [6]: ≥ 80% | melting point: 89 to 91 °C

CCC(CC)CC(C)NC(=O)c1cnc2c(C)cccc2c1 (stereo not drawn) [E-39]
inhibition of growth at 20 ppm [1]: ≥ 80% | inhibition of growth at 20 ppm [2]: ≥ 80% | inhibition of growth at 20 ppm (Fusarium culmorum [3]): ≥ 80%

C/C(=C/c1ccccc1)CC(C)(C)NC(=O)c1cnc2c(F)cccc2c1C [E-28]
inhibition of growth at 20 ppm [1]: ≥ 80% | inhibition of growth at 20 ppm (Fusarium culmorum [3]): ≥ 80% | melting point: 96 to 98 °C

CC(CC1CC=CCC1)NC(=O)c1cnc2ccccc2c1 (stereo not drawn) [E-49]
inhibition of growth at 20 ppm [1]: ≥ 80% | inhibition of growth at 20 ppm [2]: ≥ 80% | inhibition of growth at 20 ppm (Fusarium culmorum [3]): ≥ 80%
